The text below walks through data of US7645781B2, “N-aryl-2-oxazolidinone-5-carboxamides and their derivatives” (Pfizer Inc, priority 2002, dated 2010).

As a reminder, the MIC is the lowest concentration that inhibits growth of the organism.

Converted amounts (≈) assume the structure as drawn.

The test system of the first experiment is Staphylococcus aureus (SAUR 9213). The experiment can be described thus: MIC by standard agar dilution method. The format is cell-based. Particulars: Mueller Hinton agar, incubated overnight at 35° C. An excerpt: The antibacterial agents of this invention have useful activity against a variety of organisms. The in vitro activity of compounds of this invention can be assessed by standard testing procedures such as the determination of minimum inhibitory concentration (MIC) by agar dilution as described in “Approved Standard. Methods for Dilution Antimicrobial Susceptibility Tests for Bacteria That Grow Aerobically”, 3rd. ed., published 1993 by the National Committee for Clinical Laboratory Standards, Villanova, Pa., USA. The in vitro MICs of test compounds are determined by a standard agar dilution method. A stock drug solution of each analog is prepared in the preferred solvent, usually DMSO:H2O (1:3). Serial 2-fold dilutions of each sample are made using 1.0 ml aliquots of sterile distilled water. To each 1.0 ml aliquot of drug is added 9 ml of molten Mueller Hinton agar medium. The drug-supplemented agar is mixed, poured into 15×100 mm petri dishes, and allowed to solidify and dry prior to inoculation. Vials of each of the test organisms are maintained frozen in the vapor phase of a liquid nitrogen freezer. Test cultures are grown overnight at 35° C. on the medium appropriate for the organism. Colonies are harvested with a sterile swab, and cell suspensions are prepared in Trypticase Soy broth (TSB) to equal the turbidity of a 0.5 McFarland standard. A 1:20 dilution of each suspension is made in TSB. The plates containing the drug supplemented agar are inoculated with a 0.001 ml drop of the cell suspension using a Steers replicator, yielding approximately 10^4 to 10^5 cells per spot. The plates are incubated overnight at 35° C. Following incubation the Minimum Inhibitory Concentration (MIC μg/ml), the lowest concentration of drug that inhibits visible growth of the organism, is read and recorded.
In turn, `N=S1(=O)CCC(c2ccc(N3C[C@H](C(N)=O)OC3=O)cc2F)CC1` (stereo in doubt) [Example 56, (5R)-3-[4-(cis-1-Imino-1-oxido-1,1,3,4,5,6-hexahydro-2H-thiopyran-4-yl)-3-fluorophenyl]-2-oxo-5-oxazolidinecarboxamide] yielded an MIC of 4 mg/L (≈ 11.3 µM).

The same experiment, now with this note: Mueller Hinton agar, incubated overnight at 35° C., read-out: MIC.
Regarding `NC(=O)[C@H]1CN(c2ccc(N3C=CC(=NO)CC3)c(F)c2)C(=O)O1` (racemic) [Example 79, (5R)-3-[4-[3,4-Dihydro-4-(hydroxyimino)-1(2H)-pyridinyl]-3-fluorophenyl]-2-oxo-5-oxazolidinecarboxamide], the MIC was found to be 1 mg/L (≈ 2.99 µM). `NC(=O)[C@H]1CN(c2cc(F)c([C@H]3CC[S@+]([O-])CC3)c(F)c2)C(=O)O1` [Example 47, (5R)-(−)-3-[3,5-Difluoro-4-(trans-tetrahydro-1-oxido-2H-thiopyran-4-yl)phenyl]-2-oxo-5-oxazolidinecarboxamide]: the minimal inhibitory concentration (MIC) is 4 mg/L (≈ 11.2 µM).

In the case of `CNC(=O)[C@H]1CN(c2cc(F)c([C@H]3CC[S@+]([O-])CC3)c(F)c2)C(=O)O1` [Example 48, (5R)-N-Methyl-3-[3,5-difluoro-4-(trans-tetrahydro-1-oxido-2H-thiopyran-4-yl)phenyl]-2-oxo-5-oxazolidinecarboxamide], the minimal inhibitory concentration (MIC) was found to be 2 mg/L (≈ 5.37 µM). Still for that read-out and setting: the same measure for `COC(=O)N1CC(C)(c2c(F)cc(N3C[C@H](C(N)=O)OC3=O)cc2F)C1` [Example 57, (5R)-(−)-3-[3,5-Difluoro-4-(1-methoxycarbonyl-3-methylazetidin-3-yl)phenyl]-2-oxo-5-oxazolidinecarboxamide]: 8 mg/L (≈ 21.7 µM); for `CNC(=O)[C@H]1CN(c2cc(F)c(C3(C)CN(C(=O)OC)C3)c(F)c2)C(=O)O1` [Example 58, (5R)-(−)-N-Methyl-3-[3,5-difluoro-4-(1-methoxycarbonyl-3-methylazetidin-3-yl)phenyl]-2-oxo-5-oxazolidinecarboxamide]: 8 mg/L (≈ 20.9 µM).

`CN1C(=O)COc2cc(N3C[C@H](C(N)=O)OC3=O)ccc21` [Example 59, (5R)-3-(3,4-Dihydro-4-methyl-3-oxo-2H-1,4-benzoxazin-7-yl) -2-oxo-5-oxazolidinecarboxamide]: the MIC came to 2 mg/L (≈ 6.87 µM). Still for that read-out and setting: the result for `CNC(=O)[C@H]1CN(c2ccc3c(c2)OCC(=O)N3C)C(=O)O1` [Example 60, (5R)-N-Methyl-3-(3,4-dihydro-4-methyl-3-oxo-2H-1,4-benzoxazin-7-yl)-2-oxo-5-oxazolidinecarboxamide] reads 2 mg/L (≈ 6.55 µM); that for `CN1C(=O)COc2cc(N3C[C@H](C(=O)NCCF)OC3=O)ccc21` [Example 61, (5R)-N-(2-Fluoroethyl)-3-(3,4-dihydro-4-methyl-3-oxo-2H -1,4-benzoxazin-7-yl)-2-oxo-5-oxazolidinecarboxamide], 8 mg/L (≈ 23.7 µM).

As to `CN1C(=O)CSc2cc(N3C[C@H](C(N)=O)OC3=O)ccc21` [Example 62, (5R)-3-(3,4-Dihydro-4-methyl-3-oxo-2H-1,4-benzothiazin-7-yl)-2-oxo-5-oxazolidinecarboxamide], the minimum inhibitory concentration (MIC) is 4 mg/L (≈ 13 µM). `CNC(=O)[C@H]1CN(c2ccc3c(c2)SCC(=O)N3C)C(=O)O1` [Example 63, (5R)-N-Methyl-3-(3,4-dihydro-4-methyl-3-oxo-2H-1,4-benzothiazin-7-yl)-2-oxo-5-oxazolidinecarboxamide]: the MIC was 4 mg/L (≈ 12.4 µM). Take `NC(=O)[C@H]1CN(c2cc(F)c(N3C=CS(=O)(=O)CC3)c(F)c2)C(=O)O1` [Example 65, (5R)-3-[4-(1,1-dioxido-2,3-dihydro-4H-1,4-thiazin-4-yl)-3,5-difluorophenyl]-2-oxo-5-oxazolidinecarboxamide]: the MIC is 2 to 4 mg/L (≈ 5.36 to 10.7 µM). Same read-out and setting: the same measure for `NC(=O)[C@H]1CN(c2cc(F)c(N3CC=CC3)c(F)c2)C(=O)O1` [Example 66, (5R)-3-[4-(2,5-Dihydro-1H-pyrrol-1-yl)-3,5-difluorophenyl]-2-oxo-5-oxazolidinecarboxamide]: 4 mg/L (≈ 12.9 µM); for `CN1C(=O)CCc2cc(N3C[C@H](C(N)=O)OC3=O)ccc21` [Example 67, (5R)-3-(1-Methyl-2-oxo-1,2,3,4-tetrahydroquinolin-6-yl)-2-oxo-5-oxazolidinecarboxamide]: 2 mg/L (≈ 6.91 µM).
